Earlier results as cited in PMC9516332 (Frontiers in Oncology, 2022).
Where two headings read alike, the source gives them in different places.

Tests used:
[1] = molecular target: panel of 255 wild-type kinases (Homo sapiens, UniProt Q13131); details: AMPKα1/β1/γ1 kinase assay; 1 µmol/L single concentration; ref DOI: 10.1158/1535-7163.MCT-18-0877; cited from earlier work
[2] = molecular target: panel of 255 wild-type kinases (Homo sapiens, UniProt Q14289); details: kinase PYK2, 1 µmol/L single concentration, cited from earlier work
[3] = molecular target: panel of 255 wild-type kinases (Homo sapiens, UniProt Q15375); details: kinase EPHA7, 1 µmol/L single concentration, cited from earlier work
[4] = molecular target: panel of 255 wild-type kinases (Homo sapiens, UniProt Q13554); details: CaMK2β kinase assay, 1 µmol/L single concentration, cited from earlier work
[5] = molecular target: panel of 255 wild-type kinases (Homo sapiens, UniProt Q16539); details: p38α; 1 µmol/L single concentration; ref DOI: 10.1158/1535-7163.MCT-18-0877; cited from earlier work
[6] = molecular target: panel of 255 wild-type kinases (Homo sapiens, UniProt P11309); details: kinase PIM1; 1 µmol/L single concentration; ref DOI: 10.1158/1535-7163.MCT-18-0877; cited from earlier work
[7] = molecular target: panel of 255 wild-type kinases (Homo sapiens, UniProt Q06187); details: BTK kinase assay, 1 µmol/L single concentration, cited from earlier work
[8] = molecular target: panel of 255 wild-type kinases (Homo sapiens, UniProt P49761); details: kinase CLK3, 1 µmol/L single concentration, cited from earlier work
[9] = molecular target: panel of 255 wild-type kinases (Homo sapiens, UniProt Q9UPE1); details: MSSK1, 1 µmol/L single concentration, cited from earlier work
[10] = molecular target: T1, panel of 255 wild-type kinases (Homo sapiens, UniProt Q08881); details: kinase ITK, 1 µmol/L single concentration, cited from earlier work
T1 sequence (Q08881 1-620): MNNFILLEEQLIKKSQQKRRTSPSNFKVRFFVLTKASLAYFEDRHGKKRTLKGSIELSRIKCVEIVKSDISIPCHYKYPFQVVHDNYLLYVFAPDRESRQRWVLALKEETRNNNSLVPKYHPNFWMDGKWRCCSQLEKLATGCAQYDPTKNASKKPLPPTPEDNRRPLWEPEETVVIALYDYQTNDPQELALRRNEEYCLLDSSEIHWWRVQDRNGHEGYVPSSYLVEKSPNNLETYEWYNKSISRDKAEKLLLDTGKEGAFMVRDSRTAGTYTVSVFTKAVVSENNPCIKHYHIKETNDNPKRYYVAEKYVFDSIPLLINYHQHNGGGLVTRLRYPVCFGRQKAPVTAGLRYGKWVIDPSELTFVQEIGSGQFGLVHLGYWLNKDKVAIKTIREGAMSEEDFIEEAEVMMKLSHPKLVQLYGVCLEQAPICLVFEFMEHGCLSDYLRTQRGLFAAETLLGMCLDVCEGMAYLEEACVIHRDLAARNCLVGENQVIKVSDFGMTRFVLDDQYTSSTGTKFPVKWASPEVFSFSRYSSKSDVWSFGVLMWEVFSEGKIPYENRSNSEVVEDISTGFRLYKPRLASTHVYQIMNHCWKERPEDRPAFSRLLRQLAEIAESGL

[11] = molecular target: T2, panel of 255 wild-type kinases (Homo sapiens, UniProt Q13237); details: CGK2 kinase assay, 1 µmol/L single concentration, cited from earlier work
T2 sequence (Q13237 1-762): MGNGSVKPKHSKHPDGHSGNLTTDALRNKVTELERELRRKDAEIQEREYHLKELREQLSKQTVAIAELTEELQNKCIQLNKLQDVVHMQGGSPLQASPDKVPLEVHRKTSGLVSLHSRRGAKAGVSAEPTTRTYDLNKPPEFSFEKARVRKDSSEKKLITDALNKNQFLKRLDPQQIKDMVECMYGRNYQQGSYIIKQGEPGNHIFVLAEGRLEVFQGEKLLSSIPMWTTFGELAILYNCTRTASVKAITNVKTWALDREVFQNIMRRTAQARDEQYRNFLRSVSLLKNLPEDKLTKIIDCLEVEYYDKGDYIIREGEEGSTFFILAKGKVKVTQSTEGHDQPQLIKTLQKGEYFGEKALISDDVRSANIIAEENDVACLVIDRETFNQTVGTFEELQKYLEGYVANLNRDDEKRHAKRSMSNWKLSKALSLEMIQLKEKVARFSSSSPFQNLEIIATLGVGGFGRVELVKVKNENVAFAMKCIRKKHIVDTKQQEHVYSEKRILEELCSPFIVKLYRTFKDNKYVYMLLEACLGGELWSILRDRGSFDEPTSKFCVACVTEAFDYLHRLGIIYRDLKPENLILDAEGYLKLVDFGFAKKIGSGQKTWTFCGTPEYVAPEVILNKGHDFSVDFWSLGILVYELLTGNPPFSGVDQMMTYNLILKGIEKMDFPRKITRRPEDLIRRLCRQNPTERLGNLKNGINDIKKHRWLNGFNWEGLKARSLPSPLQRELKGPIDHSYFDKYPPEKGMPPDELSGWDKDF

[12] = molecular target: panel of 255 wild-type kinases (Homo sapiens, UniProt P35968); details: kinase KDR; 1 µmol/L single concentration; ref DOI: 10.1158/1535-7163.MCT-18-0877; cited from earlier work
[13] = molecular target: panel of 255 wild-type kinases (Homo sapiens, UniProt Q15418); details: kinase RSK1; 1 µmol/L single concentration; ref DOI: 10.1158/1535-7163.MCT-18-0877; cited from earlier work
[14] = ref DOI: 10.1158/1535-7163.MCT-18-0877
[15] = ref DOI: 10.1371/journal.pone.0092146

Structure (SMILES)	%-inhibition AMPKα1/β1/γ1 [1] [%]	%-inhibition at 1 µmol/L, PYK2 [2, 14] [%]	%-inhibition at 1 µmol/L, EPHA7 [3, 14] [%]	%-inhibition CaMK2β [4, 14] [%]	%-inhibition, p38α [5] [%]	%-inhibition at 1 µmol/L, PIM1 [6] [%]	%-inhibition BTK [7, 14] [%]	%-inhibition at 1 µmol/L, CLK3 [8, 14] [%]	%-inhibition, MSSK1 [9, 14] [%]	%-inhibition at 1 µmol/L, ITK [10, 14] [%]	%-inhibition CGK2 [11, 14] [%]	%-inhibition at 1 µmol/L, KDR [12] [%]	%-inhibition at 1 µmol/L, RSK1 [13] [%]	also measured
O=C(c1ccc(F)c(F)c1Nc1ccc(I)cc1F)N1CC(O)([C@@H]2CCCCN2)C1 [cobimetinib]	-0.873	2.5	1.75	-0.487	-5.49	1	4	4	1.46	4	0.273	13	1.39	–
CC(C)(C)c1nc(-c2cccc(NS(=O)(=O)c3c(F)cccc3F)c2F)c(-c2ccnc(N)n2)s1 [dabrafenib]	–	–	–	–	–	–	–	–	–	–	–	–	–	%-inhibition at 1 µmol/L, PYK2 [2, 15]: 56%; %-inhibition at 1 µmol/L, EPHA7 [3, 15]: 13%; %-inhibition CaMK2β [4, 15]: -0.277%; %-inhibition BTK [7, 15]: 60%; %-inhibition at 1 µmol/L, CLK3 [8, 15]: 17%; %-inhibition, MSSK1 [9, 15]: 2.55%; %-inhibition at 1 µmol/L, ITK [10, 15]: 49%; %-inhibition CGK2 [11, 15]: -1.38%
Cc1cc(Nc2ncc(Cl)c(Nc3ccccc3S(=O)(=O)C(C)C)n2)c(OC(C)C)cc1C1CCNCC1 [ceritinib]	21	100	4.64	23	1.8	-8	-1.88	36	36	11	14	58	75	–
CCc1cc2c(cc1N1CCC(N3CCOCC3)CC1)C(C)(C)c1[nH]c3cc(C#N)ccc3c1C2=O [alectinib]	5	47	1.58	2.14	-0.471	15	4.39	-2.36	97	–	7.53	18	15	–
